Measured values published in PubChem BioAssay (NCI).
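96-well plates; 48 h exposure; 5 concentrations. Endpoints by linear interpolation between flanking doses. Not reached: highest tested concentration assigned. Here, GI50 denotes the concentration required for 50% inhibition of growth. TGI marks complete inhibition of growth.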 *1 amine or outer side, *2 acyl side, *3 side chain or, on linkers, in order; H or OH if unused. Where a SMILES comes first, the peptide text is derived from it. [ ]: non-standard residue; d: D form. X33 = C=CCC(O[*:1])C(=O)[*:2]; NMeV = CN[CH](C(=O)O)C(C)C; NMeA = CN[CH](C)C(=O)O; βAla = NCCC(=O)O

What was measured:
Assay in all cases: NCI tumour cell line growth inhibition, 48 h
DMS 114 small cell lung = test system: DMS 114 small cell lung
DMS 273 small cell lung = test system: DMS 273 small cell lung
SNB-78 CNS = test system: SNB-78 CNS
LXFL 529 NSCLC = test system: LXFL 529 NSCLC
DLD-1 colon = test system: DLD-1 colon
KM20L2 colon = test system: KM20L2 colon
XF 498 CNS = test system: XF 498 CNS
M19-MEL melanoma = test system: M19-MEL melanoma
HOP-18 NSCLC = test system: HOP-18 NSCLC
786-0 renal = test system: 786-0 renal
DU-145 prostate = test system: DU-145 prostate
BT-549 breast = test system: BT-549 breast
T-47D breast = test system: T-47D breast
MDA-N = test system: MDA-N
MDA-MB-231 breast = test system: MDA-MB-231 breast
P388/ADR leukemia = test system: P388/ADR leukemia
P388 leukemia = test system: P388 leukemia
SN12K1 renal = test system: SN12K1 renal

Row | SMILES | TGI (DMS 114 small cell lung) | TGI (DMS 273 small cell lung) | TGI (SNB-78 CNS) | TGI (LXFL 529 NSCLC) | TGI (DLD-1 colon) | TGI (KM20L2 colon) | TGI (XF 498 CNS) | TGI (M19-MEL melanoma) | TGI (HOP-18 NSCLC) | TGI (786-0 renal) | TGI (DU-145 prostate) | TGI (BT-549 breast) | TGI (T-47D breast) | TGI (MDA-N) | TGI (MDA-MB-231 breast) | TGI (P388/ADR leukemia) | TGI (P388 leukemia) | TGI (SN12K1 renal) | GI50 (BT-549 breast) | GI50 (T-47D breast)
1 | CC(c1ccccc1)/[N+]([O-])=C/c1ccccc1 (centres undefined) | > 100 µM | > 100 µM | > 100 µM | > 100 µM | > 100 µM | > 100 µM | > 100 µM | > 100 µM | > 100 µM | – | – | – | – | – | – | – | – | – | – | –
2 | Nc1nc(N)c2[nH]cnc2n1 (tested in a mixture with another compound) | – | – | – | – | – | – | – | – | – | > 100 µM | > 100 µM | > 100 µM | 40 µM | > 100 µM | > 100 µM | – | – | – | – | –
3 | C=CCC1OC(=O)CCNC(=O)C(C)N(C)C(=O)C(C(C)C)N(C)C(=O)C(C(C)CC)NC(=O)C2CCCN2C1=O (centres undefined) (cyclo([X33]PI[NMeV][NMeA][βAla]); configuration not given here) | – | – | – | – | – | – | – | – | – | > 100 µM | > 100 µM | > 100 µM | > 100 µM | > 100 µM | 62.9 µM | – | – | – | – | –
4 | Cc1ccc2c(C)c3ccc4ccccc4c3c[n+]2c1 | 31 µM | 32.7 µM | > 100 µM | 30.4 µM | > 100 µM | > 100 µM | – | 17.3 µM | 43.2 µM | 80.3 µM | – | – | – | – | – | – | – | – | – | –
5 | C/C(=N\NC(=S)Nc1ccc(C)cc1)c1nc2ncccc2[nH]1 | – | – | – | – | – | – | – | – | – | 18.7 µM | 13.6 µM | 11.8 µM | 18 µM | 23.8 µM | > 100 µM | – | – | – | – | –
6 | CC1OC1C(=O)C1(O)C(C)C(O)C23OC2(C(O)c2c(O)cccc2C3=O)C1O (centres undefined) | 0.191 µM | 0.551 µM | 3.46 µM | – | 1.7 µM | 1.14 µM | 0.961 µM | 0.526 µM | 0.489 µM | – | – | – | – | – | – | 0.425 µM | 0.345 µM | 0.889 µM | – | –
7 | CCSc1nc(=[N+]2CCCC2)ss1 | 55.5 µM | > 100 µM | > 100 µM | > 100 µM | > 100 µM | > 100 µM | > 77.9 µM | 27.3 µM | > 100 µM | > 87 µM | > 100 µM | 95.9 µM | – | > 100 µM | > 100 µM | – | – | – | – | –
8 | COc1ccc(-c2c3c(nc4nc(SC)nc(SC)c24)CCCC3)cc1OC | – | – | – | – | – | – | – | – | – | – | > 100 µM | > 100 µM | > 100 µM | > 100 µM | > 100 µM | – | – | – | – | –
9 | C[C@]12CCc3sc(Nc4ccc(O)cc4)nc3C1=CC[C@@H]1[C@@H]2CC[C@]2(C)C(=O)CC[C@@H]12 | – | – | – | – | – | – | – | – | – | – | – | > 100 µM | 5.03 µM | – | – | – | – | – | 3.13 µM | 1.95 µM
10 | CN1CCN(c2cc(-c3cc4ccccc4o3)oc(=O)c2C#N)CC1 | > 100 µM | > 100 µM | > 100 µM | > 100 µM | > 100 µM | > 100 µM | > 100 µM | – | – | – | – | – | – | – | – | – | – | – | – | –
11 | CCOP(=O)(CN=C(c1ccccc1)c1ccccc1)OCC | – | – | – | – | – | – | – | – | – | – | > 100 µM | – | > 100 µM | > 100 µM | > 100 µM | – | – | – | – | –
12 | O=C(NN1C(=O)CSC1c1ccc(C(F)(F)F)cc1)c1ccncc1 (centres undefined) | > 100 µM | > 100 µM | > 31.6 µM | – | > 100 µM | > 100 µM | > 100 µM | > 100 µM | > 100 µM | – | – | – | – | – | – | > 100 µM | > 100 µM | > 100 µM | – | –
13 | NC(=S)N/N=C1\c2ccccc2CCC1CCC1(O)CCc2ccccc2C1=O (centres undefined) | – | – | – | – | – | – | – | – | – | – | > 100 µM | 31.6 µM | 28.9 µM | 58.4 µM | > 100 µM | – | – | – | – | –
14 | O=C1OCC/C1=C/c1ccc(N=Nc2c(O)ccc3ccccc23)cc1 | – | – | – | – | – | – | – | – | – | 36.6 µM | 36.6 µM | 49.9 µM | > 100 µM | 33.5 µM | > 100 µM | – | – | – | – | –
15 | Cc1ccc(Nc2nc(NS(=O)(=O)c3cc(C(=O)Nc4ccc(Cl)cc4)c(Cl)cc3S)n[nH]2)cc1 | – | – | – | – | – | – | – | – | – | – | > 100 µM | > 100 µM | > 100 µM | > 100 µM | > 100 µM | – | – | – | – | –
16 | CCc1nnc(-c2nsc3ccccc23)s1 | > 100 µM | > 100 µM | > 100 µM | > 100 µM | – | > 100 µM | – | – | > 100 µM | – | – | – | – | – | – | – | – | – | – | –
17 | CC(CCC(=O)O)C1CCC2C3C(O)CC4CC(O)CCC4(C)C3CC(O)C12C (centres undefined) | – | – | – | – | – | – | – | – | – | > 100 µM | > 100 µM | > 100 µM | > 100 µM | > 100 µM | > 100 µM | – | – | – | – | –
18 | COC1=CC(=O)c2c(O)c3c(c(O)c2C1=O)C=C(C)OC3O (centres undefined) | 2.96 µM | 2.17 µM | 4.14 µM | 2.7 µM | 3.87 µM | 10.4 µM | 4.72 µM | 0.502 µM | – | 10.9 µM | 2.18 µM | 3.5 µM | 7.05 µM | 3.08 µM | 5.09 µM | – | – | – | – | –
